Read-outs that look alike come from different tables or passages of the source.
Assays:
HL60 cells = assay: AsedaSciences SYSTEMETRIC Cell Health Screen (flow cytometry toxicity profiling); conditions: HL60, 4 h, 5 nM–100 µM; for CC: Cell Cycle score / CM: Cell morphology score / CMI: Cell membrane integrity score / GSH: Glutathione score / MMP: Mitochondrial membrane depolarization score / NMI1: Nuclear membrane integrity 1 score / NMI2: Nuclear membrane integrity 2 score / ROS: Reactive superoxide species score: probability 0–1, n = 2; for CHI: Cell Health Index: probability (0–1) of high-risk class, n = 2
Summary of the method: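 HL60 cells (100,000 per well) exposed 4 h at 37 °C, 5% CO2 to 10-step 3× dilutions (5 nM–100 µM), in duplicate. Cells then stained with mitochondrial and cell-stress reporter dyes and read by ungated flow cytometry over twelve parameters. Cell Health Index and eight endpoint scores come from an ML classifier trained on 300 high/low-risk compounds.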

U-CH1 chordoma cell line [1] = conditions: previously reported, Figure 1; cited from earlier work
U-CH2 chordoma cell line [2] = conditions: previously reported, Figure 1; cited from earlier work
U-CH1 chordoma cell line [3] = assay: Cell viability assay (alamarBlue, 72 h), U-CH1; type: cell-based, human; conditions: n = 4, 72 h
Summary of the method: (§1)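 Cells grown in 4:1 IMDM:RPMI with 10% FBS on gel-coated flasks, dosed in quadruplicate 24 h after seeding in 384-well plates.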

U-CH2 chordoma cell line [4] = assay: Cell viability assay (alamarBlue, 72 h), U-CH2; type: cell-based, human
Summary of the method: as §1

[5] = test system: CH22 patient-derived chordoma cell line; assay: Cell viability assay (alamarBlue, 72 h), CH22; type: cell-based, human; conditions: n = 4, 72 h
Experimental: (§2) Chordoma cell lines were cultured as described previously[10],[12],[33],[34]. Briefly, U-CH1 and U-CH2 cell lines were cultured in 4:1 IMDM:RPMI medium supplemented with 10% fetal bovine serum (FBS) and 1% penicillin/streptomycin in gel-coated flasks. […] CH22, UM-Chor1, U-CH12, and U-CH7 cell lines were cultured in RPMI medium supplemented with 10% FBS and 1% penicillin/streptomycin. The cell lines all undergo regular mycoplasma screening.
(§3) Cells were seeded in 384 well plates and were treated with test compound in quadruplicate 24 h after plating. Cell viability was assessed at 72 h using alamarBlue (ThermoFisher, USA). […] IC50 values were determined by four-parameter nonlinear regression analyses using GraphPad Prism™ version 8 software (San Diego, CA).

[6] = test system: WS1 human fibroblast cell line; assay: Cell viability assay, WS1 toxicity control; type: cell-based; conditions: n = 4, nonspecific toxicity control
Experimental: as §3

[7] = test system: UM-Chor1 patient-derived chordoma cell line; assay: Cell viability assay (alamarBlue, 72 h), UM-Chor1; type: cell-based, human; conditions: n = 4, 72 h
Experimental: as §2, §3

[8] = test system: U-CH7 patient-derived chordoma cell line; assay: Cell viability assay (alamarBlue, 72 h), U-CH7; type: cell-based, human; conditions: n = 4, 72 h
Experimental: as §2, §3

[9] = test system: U-CH12 patient-derived chordoma cell line; assay: Cell viability assay (alamarBlue, 72 h), U-CH12; type: cell-based, human; conditions: n = 4, 72 h
Experimental: as §2, §3

EGFR = EGFR (Homo sapiens, UniProt P00533); assay: ProQinase in-cell EGFR assay (EGFR phosphorylation in A431 cells); type: cell-based; parameters: This cell line endogenously expresses a high level of EGFR; endogenous in cells; host or cells: A431
From the text: In addition, we ran an EGFR in-cell target engagement assay, measuring in-cell EGFR phosphorylation, using the human epidermoid carcinoma cell line A431. This cell line endogenously expresses a high level of EGFR, and stimulation of these cells with human epidermal growth factor (EGF) results in receptor tyrosine autophosphorylation.

[10] = ProQinase in-cell EGFR assay, A431 cells, n = 1

Chain of EGFR (P00533 25-1210): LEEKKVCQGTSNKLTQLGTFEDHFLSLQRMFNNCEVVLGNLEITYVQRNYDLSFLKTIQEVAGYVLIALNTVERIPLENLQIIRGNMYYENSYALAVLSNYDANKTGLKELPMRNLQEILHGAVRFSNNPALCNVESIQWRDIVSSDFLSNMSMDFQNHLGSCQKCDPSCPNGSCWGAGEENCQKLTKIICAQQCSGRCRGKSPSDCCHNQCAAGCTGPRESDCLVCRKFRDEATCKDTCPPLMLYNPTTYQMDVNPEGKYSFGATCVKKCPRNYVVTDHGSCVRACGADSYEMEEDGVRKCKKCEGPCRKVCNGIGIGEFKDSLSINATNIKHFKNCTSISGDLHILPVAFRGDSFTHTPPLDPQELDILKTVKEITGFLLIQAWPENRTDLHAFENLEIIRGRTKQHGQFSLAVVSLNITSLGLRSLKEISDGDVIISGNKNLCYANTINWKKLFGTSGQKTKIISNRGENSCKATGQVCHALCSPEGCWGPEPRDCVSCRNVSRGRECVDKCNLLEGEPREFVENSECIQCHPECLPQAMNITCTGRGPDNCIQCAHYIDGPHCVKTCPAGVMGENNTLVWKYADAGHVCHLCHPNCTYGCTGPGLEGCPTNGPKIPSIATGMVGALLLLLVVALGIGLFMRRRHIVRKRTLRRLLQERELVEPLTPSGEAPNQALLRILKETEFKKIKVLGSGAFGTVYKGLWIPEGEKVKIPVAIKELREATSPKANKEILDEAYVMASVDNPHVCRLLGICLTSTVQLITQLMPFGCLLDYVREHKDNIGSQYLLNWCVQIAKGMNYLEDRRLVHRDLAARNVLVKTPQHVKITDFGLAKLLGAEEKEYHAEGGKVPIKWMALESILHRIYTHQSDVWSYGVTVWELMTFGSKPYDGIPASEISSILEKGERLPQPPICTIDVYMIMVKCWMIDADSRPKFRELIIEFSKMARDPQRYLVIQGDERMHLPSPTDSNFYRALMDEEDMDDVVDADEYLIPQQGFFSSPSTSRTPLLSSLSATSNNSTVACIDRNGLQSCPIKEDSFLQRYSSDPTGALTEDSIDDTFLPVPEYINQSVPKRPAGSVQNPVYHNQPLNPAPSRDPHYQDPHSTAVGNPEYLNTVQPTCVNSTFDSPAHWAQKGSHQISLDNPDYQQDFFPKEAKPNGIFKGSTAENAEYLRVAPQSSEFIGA

IC50 (EGFR; [10]) [µM] | Compound | CC: Cell Cycle score (HL60 cells) | CM: Cell morphology score (HL60 cells) | CMI: Cell membrane integrity score (HL60 cells) | GSH: Glutathione score (HL60 cells) | MMP: Mitochondrial membrane depolarization score (HL60 cells) | NMI1: Nuclear membrane integrity 1 score (HL60 cells) | NMI2: Nuclear membrane integrity 2 score (HL60 cells) | ROS: Reactive superoxide species score (HL60 cells) | CHI: Cell Health Index (HL60 cells) | IC50 (U-CH1 chordoma cell line [1]) [µM] | IC50 (U-CH2 chordoma cell line [2]) [µM] | IC50 (U-CH1 chordoma cell line [3]) [µM] | IC50 (U-CH2 chordoma cell line [4]; n = 4, 72 h) [µM] | IC50 [5] [µM] | IC50 [6] [µM] | IC50 [7] [µM] | IC50 [8] [µM] | IC50 [9] [µM] | also measured
 | CN(C)C/C=C/C(=O)Nc1cc2c(Nc3ccc(F)c(Cl)c3)ncnc2cc1O[C@H]1CCOC1 [Afatinib, reference compound] | 0.93 | 1.00 | 1.00 | 1.00 | 1.00 | 1.00 | 0.99 | 1.00 | 0.92 | 0.1 | 6.4 |  |  |  |  |  |  |  | 
0.019 | C#Cc1cccc(Nc2ncnc3cc(OC)c(OC)cc23)c1 [Compound 1, N-(3-ethynylphenyl)-6,7-dimethoxyquinazolin-4-amine] | 0.086 | 0.85 | 0.11 | 0.18 | 0.39 | 0.47 | 0.41 | 0.32 | 0.41 | 0.92 | > 50 | 0.63 |  |  |  |  |  |  | IC50 (U-CH1 chordoma cell line [3]; Homo sapiens, UCH1, 72 h): < 1 µM; IC50 (U-CH2 chordoma cell line [4]; Homo sapiens, UCH2, n = 4, 72 h): 66 µM; IC50 ([5]; Homo sapiens): > 100 µM; IC50 ([6]; Homo sapiens, Fibroblast): 15 µM; IC50 ([7]; Homo sapiens): 28 µM; IC50 ([8]; Homo sapiens): 23 µM; IC50 ([9]; Homo sapiens): > 100 µM
0.29 | C#Cc1ccc(F)c(Nc2ncnc3cc(OC)c(OC)cc23)c1 [Compound 42] | 0.67 | 0.31 | 0.78 | 0.25 | 0.89 | 0.13 | 0.85 | 0.63 | 0.48 |  |  | 6.7 | 20 | 4.2 | 20 | > 100 | > 100 | > 100 | 
0.06 | C#Cc1cccc(Nc2ncnc3cc(OC)c(OC)cc23)c1F [Compound 43] | 0.059 | 0.0093 | 0.56 | 0.38 | 0.28 | 0.10 | 0.59 | 0.024 | 0.33 |  |  | 2 | 7.1 | 5.8 | 12 | > 100 | 57 | > 100 | 
0.03 | C#Cc1cc(Nc2ncnc3cc(OC)c(OC)cc23)ccc1F [Compound 44] | 0.027 | 0.83 | 0.40 | 0.054 | 0.15 | 0.44 | 0.18 | 0.66 | 0.34 |  |  | > 100 | 22 | 0.3 | 0.33 | 7.2 | 0.68 | 0.87 | IC50 (EGFR; in-cell EGFR inhibition): < 0.1 µM

Source: article PMC9329436, “Optimization of the 4-anilinoquin(az)oline scaffold as epidermal growth factor receptor (EGFR) inhibitors for chordoma utilizing a toxicology profiling assay platform” (Scientific Reports, 2022)
